Structures can show the parent of a compound that is named as a salt.

We go through 13 compounds from patent EP3858439A1 (priority 2020, dated 2021).

The first test deals with T1, human µ-opioid receptor (Homo sapiens, UniProt P35372).
T1 construct: expressed in transfected cells; host or cells: CHO-K1
T1 sequence (P35372 whole entry): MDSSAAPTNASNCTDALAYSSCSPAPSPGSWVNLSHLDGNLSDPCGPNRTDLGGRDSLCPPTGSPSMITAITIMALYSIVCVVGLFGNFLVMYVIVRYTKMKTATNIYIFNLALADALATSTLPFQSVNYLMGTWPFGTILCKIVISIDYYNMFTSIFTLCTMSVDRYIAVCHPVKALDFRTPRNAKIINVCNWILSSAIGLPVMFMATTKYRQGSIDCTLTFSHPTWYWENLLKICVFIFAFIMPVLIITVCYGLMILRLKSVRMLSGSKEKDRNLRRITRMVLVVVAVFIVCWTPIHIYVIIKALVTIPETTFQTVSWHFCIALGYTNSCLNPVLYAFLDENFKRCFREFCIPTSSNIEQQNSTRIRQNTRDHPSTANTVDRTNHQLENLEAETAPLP
Put plainly: Binding assay to human µ-opioid receptor ([3H]-DAMGO displacement).
Conditions: not given
On the procedure:
Binding assay to human µ-opioid receptor
Transfected CHO-K1 cell membranes (20 µg) were incubated with [^3H]-DAMGO (1 nM) in assay buffer containing Tris-HCl 50 mM, MgCl2 5 mM at pH 7.4.
Plates were incubated at 27 °C for 60 min. After the incubation period, the reaction mixture was then transferred to MultiScreen HTS, FC plates (Millipore), filtered and plates were washed 3 times with ice-cold 10 mM Tris-HCl (pH 7.4).
Filters were dried and counted at approximately 40% efficiency in a MicroBeta scintillation counter (Perkin-Elmer) using EcoScint liquid scintillation cocktail.
As to `CNCC(Cc1cccc(F)c1)C(=O)N1CCC(c2ccccc2)(N(C)C)CC1` (stereo not shown) [Example 52, 1-(4-(dimethylamino)-4-phenylpiperidin-1-yl)-2-(3-fluorobenzyl)-3-(methylamino) propan-1-one], the Ki is < 100 nM.

`CNC[C@H](C(=O)N1CCC(c2ccccc2)(N(C)C)CC1)[C@H](C)c1ccccc1` [Example 87, (2R,3S)-1-(4-(dimethylamino)-4-phenylpiperidin-1-yl)-2-((methylamino)methyl)-3-phenylbutan-1-one] displayed a Ki of 100 to 500 nM. Still for that read-out and setting: with `CNCC(Cc1ccccc1)C(=O)N1CCC(NC)(c2cccc(O)c2)CC1` (stereo not shown) [Example 44, 2-benzyl-1-(4-(3-hydroxyphenyl)-4-(methylamino)piperidin-1-yl)-3-(methylamino)propan-1-one dihydrochloride] the figure was < 100 nM. The same measure, in the same setting: next, `CN(C)C1(c2ccccc2)CCN(C(=O)C(CNCc2ccccc2)Cc2ccccc2)CC1` (stereo not shown) [Example 76, 2-Benzyl-3-(benzylamino)-1-(4-(dimethylamino)-4-phenylpiperidin-1-yl)propan-1-one dihydrochloride]: < 100 nM.

Staying with this test, now noted: Table 2; transfected CHO-K1 cell membranes, [3H]-DAMGO 1 nM, 60 min at 27 °C; read-out: Binding µ.
Take `CNC[C@@H](C(=O)N1CCC(NC)(c2ccccc2)CC1)[C@@H](C)c1ccccc1` [Example 4, (2S,3R)-1-(4-(methylamino)-4-phenylpiperidin-1-yl)-2-((methylamino)methyl)-3-phenylbutan-1-one]: the Ki lay within 100 to 500 nM. Consider `CNC[C@@H](C(=O)N1CCC(c2ccc(F)cc2)(N(C)C)CC1)[C@@H](C)c1ccccc1` [Example 2, (2S,3R)-1-(4-(dimethylamino)-4-(4-fluorophenyl)piperidin-1-yl)-2-((methylamino)methyl)-3-phenylbutan-1-one], for which the Ki is < 100 nM.

For the compound `CC[C@@H](c1ccccc1)[C@@H](CNC)C(=O)N1CCC(c2ccccc2)(N(C)C)CC1` [Example 13, (2S,3R)-1-(4-(dimethylamino)-4-phenylpiperidin-1-yl)-2-((methylamino)methyl)-3-phenylpentan-1-one dihydrochloride], the Ki was < 100 nM. In the case of `CC[C@@H](c1cccc(Cl)c1)[C@@H](CNC)C(=O)N1CCC(c2ccccc2)(N(C)C)CC1` [Example 67, (2S,3R)-3-(3-chlorophenyl)-1-(4-(dimethylamino)-4-phenylpiperidin-1-yl)-2-((methylamino)methyl)pentan-1-one], the Ki is < 100 nM. Take `CNC[C@@H](C(=O)N1CCC(c2ccccc2)(N(C)C)CC1)[C@@H](C)c1ccccc1` [Example 1, (2S,3R)-1-(4-(Dimethylamino)-4-phenylpiperidin-1-yl)-2-((methylamino)methyl)-3-phenylbutan-1-one dihydrochloride]: the Ki is < 100 nM.

As for `CNC[C@@H](C(=O)N1CCC(c2ccccc2)(N(C)C)CC1)[C@@H](C)c1ccccc1F` [Example 14, (2S,3R)-1-(4-(dimethylamino)-4-phenylpiperidin-1-yl)-3-(2-fluorophenyl)-2-((methylamino)methyl)butan-1-one dihydrochloride], the Ki lay in the range of 100 to 500 nM. For `C[C@@H](c1ccccc1)[C@@H](CN)C(=O)N1CCC(c2ccccc2)(N(C)C)CC1` [Example 7, (2S,3R)-2-(aminomethyl)-1-(4-(dimethylamino)-4-phenylpiperidin-1-yl)-3-phenylbutan-1-one dihydrochloride], the Ki is < 100 nM.

Turning to `CC[C@@H](c1cccc(F)c1)[C@@H](CNC)C(=O)N1CCC(c2ccccc2)(N(C)C)CC1` [Example 21, (2S,3R)-1-(4-(dimethylamino)-4-phenylpiperidin-1-yl)-3-(3-fluorophenyl)-2-((methylamino)methyl)pentan-1-one], the Ki was < 100 nM. With `CNC[C@@H](C(=O)N1CCC(c2ccc(OC)cc2)(N(C)C)CC1)[C@@H](C)c1ccccc1` [Example 12, (2S,3R)-1-(4-(dimethylamino)-4-(4-methoxyphenyl)piperidin-1-yl)-2-((methylamino)methyl)-3-phenylbutan-1-one], the Ki was < 100 nM.
